# Data: patent US9261498B2, “Biomarker for sensitivity to mTOR inhibitor therapy in kidney cancer” (The Regents of the University of California, priority 2005, dated 2016)
# “Also recorded” adds a separate entry of the source.
# How the values were obtained:
# [1] = test system: VHL knockdown xenograft tumors; assay: Microvessel density by CD-31 immunolabeling in xenograft tumors; format: in vivo, SCID mice
# Method: FIGS. 2A-2C. Effects of VHL knockdown on angiogenesis. (a) Microvessel density was quantified by CD-31 immunolabeling (arrows) in the xenograft tumors, and difference between CCI-779 treated (+) and vehicle (−) treated mice quantified (n=6 in each group). P<0.0033 for microvessel density counts in VHL shRNA compared to vector only (see blue bars). (b) Similar number of cells were plated and maintained in 10% serum rich media, in the presence (+) or absence (−) of 10 nM CCI-779. Thirty-six hours later, conditioned media was analyzed by anti-VEGF ELISA and cell extracts prepared for protein quantification. VEGF values were normalized to total cellular protein. Error bars equal one standard deviation (n=3). (c) Immunohistochemistry for VEGF protein was performed on paraffin embedded tumor xenografts from vehicle and CCI-779 treated mice.
# Xenograft tumor samples were fixed in 10% buffered formalin and embedded in paraffin. […] Microvessel density was quantified by as described previously (Weidner, N. et al. J Natl Cancer Inst 84, 1875-87 (1992)). Briefly, microvessel density was determined by light microscopy in areas of the xenograft tumor containing highest numbers of capillaries and small venules (microvessels) per area (i.e. neovascular “hotspots”) by scanning the tumor sections at low power (40× and 100×). […]
# [2] = test system: HIF-1α; assay: Immunoblot of heterologously expressed HIF-1α cDNA with or without 5'TOP sequences; format: cell-based, human; conditions: VHL wild-type SN12C cells, 1 or 10 nM CCI-779, 24 hours
# Method: (a) SN12C-CSCG and SN12C-VHLshRNA cell were treated with vehicle, 1 nM or 10 nM of CCI-779 and lysed 24 hours later. Lysates were subjected to immunoblotting for HIF-1α, HIF-2α, GLUT-1, CA-IX, p-eIF4G, p-S6 Ribosomal protein. Equal protein loading was verified using anti-β-actin antibody. (b) HIF-1α expression was probed by immunoblotting in SN12C-MSCV-5′TOP-HIF-1α cDNA (left panel) and SN12C-MSCV-HIF-1α cDNA (tight panel) post 24 hours of vehicle, 1 nM or 10 nM of CCI-779.
# The pCSUVCG (U6-shRNA-VHL-CMV-GFP) was constructed by ligating the BamHI/EcoRI digests of pCSCG and the U6-shRNA-VHL PCR product (see, e.g. Chen, C. D. et al. Nat Med 10, 33-9 (2004)). The U6-shRNA-VHL PCR was performed using a hU6-containing plasmid at an annealing temperature of 60° C. with the primers 5′ abc 3′ and 5′ xyz 3′. […]
# Cells and xenograft tumors were lysed in ECB lysis buffer or high-detergent buffer (2% SDS), respectively, supplemented with complete protease and phosphatase inhibitor cocktails (Calbiochem). […] Bound antibody was detected using enhanced chemiluminescence (ECL, Amersham). For VEGF ELISA quantification, cells were plated in 6 well plates (1×10^5 per well). […] Thirty-six hours later, VEGF ELISA (R&D Systems) was performed according to the manufacturer's instructions, using a Fisher Plate reader. […]
compound,measurement,setting,value
CO[C@H]1C[C@@H]2CC[C@@H](C)[C@@](O)(O2)C(=O)C(=O)N2CCCC[C@H]2C(=O)O[C@H]([C@H](C)C[C@@H]2CC[C@@H](OC(=O)C(C)(CO)CO)[C@H](OC)C2)CC(=O)[C@H](C)/C=C(\C)[C@@H](O)[C@@H](OC)C(=O)[C@H](C)C[C@H](C)/C=C/C=C/C=C/1C [CCI-779],angiogenesis as measured by microvessel density,[1]; CCI-779 treated vs vehicle,objective decrease in angiogenesis
same,decrease in microvessel density,"[1]; CD-31 staining, CCI-779 0.1 mg/kg vs vehicle",greater than 50%
same,"HIF-1α protein levels, 5'TOP sequence removed",[2],largely unaffected
same,"HIF-1α protein levels, cDNA retaining the 5'TOP sequences",[2],reduction in HIF-1α protein levels; also recorded: decrease in HIF-1α protein levels
